Source: publication PMC10541198, “Specific quinone reductase 2 inhibitors reduce metabolic burden and reverse Alzheimer’s disease phenotype in mice” (The Journal of Clinical Investigation, 2023)
“And” between values parts separate entries of the source, which are not always exact repeats. Equal values may be shown once.

Test system: QR2
Test: Immunoblot of QR2 in HCT116 cells after 4-day treatment
Assay type: cell-based, human
Conditions: 2 μM, 4 days; for QR2 expression, mean ± SEM (vehicle = 1): HCT116, n=6
Protocol: To establish direct target engagement and cell membrane permeability, a cellular thermal shift assay (CETSA) was carried out, using leading QR2is YB’s-537, 800, and 808. Following a 1 hour preincubation with 5 μM of the QR2is or vehicle, thermal aggregation curves (Taggs) of QR2 expressed in HEK293T were measured in increasing temperatures. All QR2is increased QR2 thermal stability compared with vehicle (Supplemental Figure 2A). Based on the Tagg curves we selected 73°C for isothermal dose-response fingerprint (IDTRF) experiments (Supplemental Figure 2B). The ITDRF allowed the relative quantification of the binding of each of the QR2is to QR2, measured as the EC50 (Figure 3A). […] We evaluated the safety of the QR2is using cell toxicity and viability assays. […] Cell viability was assessed by XTT assay in HEK239T cells, using a dose response, with 3- or 24-hour incubations of the leading QR2is. No sign of toxicity was seen (Figure 3C). Next, we wanted to assess if, similar to QR2 KO, QR2is can reduce cellular ROS in HCT116 cells and see whether any observable effect is occluded in QR2Δ cells. […] We then assessed WT HCT116 cells by immunoblot (Supplemental Figure 2, C and D), after being treated with YB-800 (2 μM) for 4 consecutive days.
H2DCFDA ROS assay was carried out according to established protocols, with some adjustment (Supplemental Methods) ([6]). Cell toxicity was measured via ATP depletion (CellTiter Glo, Promega) in THLE-2 cells (ATCC, CRL-2706), following 72 hours of exposure to the test compounds, and cell viability was assessed using XTT assay (Biological Industries) according to manufacturers protocols. […]
(Ser51) eIF2α (1:1000, Cell Signaling, 9721), diluted in blocking buffer. The ne xt day, the m em br anes w e re washed three times in TBST and incubated at room temperature (RT) for 1 h with 1:10,000 secondary antibodies conjugated to horseradish peroxidase, and following a further t hr e e times washes in TBSTwere immunoblotted with Westar Supernova (Cyanagen), imaged using a charge-coupled device camera and analyzed using Quantity One software (Bio-Rad). […]

For `Cc1ccc(-c2cn3cccc(C)c3n2)cc1S(=O)(=O)N1CCC(C)CC1` [YB-800], the “QR2 expression (replicates)” value (HCT116) was 1.514 and 1.125 and 1.62 and 0.8886 and 0.7618 and 1.183, the “QR2 expression, mean ± SEM (vehicle = 1)” value was “unchanged” and the “QR2 expression, mean ± SEM (vehicle = 1)” value (listed as NG800) was 1.182 ± 0.137.
